{"source": "patent US7772180B2", "about": "“Hepatitis C virus inhibitors” (Bristol-Myers Squibb Company, priority 2006, dated 2010)", "key": {"[1]": {"target": "T1, HCV NS3/4A protease complex, BMS strain (UniProt P27958, species not given/STRAIN_BMS)", "T1 construct": "other: NS3/4A BMS strain; activity range class; numeric values, unit not given; said of H77 and J4L6S; fused on or other part: A three-lysine solubilising tail at the C-terminus of NS4A; A His tag is implied by the pET21b vector and Ni-NTA purification; Both are printed for the H77 and J4L6S constructs and apply to BMS by inference", "T1 sequence (P27958 1027-1657, change not shown, one chain of several)": "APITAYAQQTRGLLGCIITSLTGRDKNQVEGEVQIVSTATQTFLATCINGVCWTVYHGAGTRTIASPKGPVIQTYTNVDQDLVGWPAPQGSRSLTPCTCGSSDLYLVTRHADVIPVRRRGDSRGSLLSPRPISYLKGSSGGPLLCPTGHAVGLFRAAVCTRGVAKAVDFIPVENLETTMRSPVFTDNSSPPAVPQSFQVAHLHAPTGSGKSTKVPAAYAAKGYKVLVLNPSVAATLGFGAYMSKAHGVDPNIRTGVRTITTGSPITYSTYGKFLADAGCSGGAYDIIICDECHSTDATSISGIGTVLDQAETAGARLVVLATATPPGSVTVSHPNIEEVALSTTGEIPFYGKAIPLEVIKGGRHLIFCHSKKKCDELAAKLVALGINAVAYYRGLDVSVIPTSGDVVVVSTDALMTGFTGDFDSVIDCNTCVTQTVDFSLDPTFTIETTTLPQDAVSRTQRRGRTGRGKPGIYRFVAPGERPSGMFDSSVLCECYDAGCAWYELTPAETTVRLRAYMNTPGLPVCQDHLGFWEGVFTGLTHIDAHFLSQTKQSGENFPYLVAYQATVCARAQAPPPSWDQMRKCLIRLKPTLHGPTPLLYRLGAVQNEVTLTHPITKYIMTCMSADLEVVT", "assay": "FRET peptide assay to monitor HCV NS3/4A proteolytic activity (BMS strain)", "format": "biochemical, Hepatitis C virus (genotype 1a)", "excerpt": "HCV NS3 protease complexes, derived from the BMS strain, H77 strain or J4L6S strain, were generated, as described below. These purified recombinant proteins were generated for use in a homogeneous assay (see below) to provide an indication of how effective compounds of the present disclosure would be in inhibiting HCV NS3 proteolytic activity.\nSerum from an HCV-infected patient was obtained from Dr. T. Wright, San Francisco Hospital. An engineered full-length cDNA (compliment deoxyribonucleic acid) template of the HCV genome (BMS strain) was constructed from DNA fragments obtained by reverse transcription-PCR (RT-PCR) of serum RNA (ribonucleic acid) and using primers selected on the basis of homology between other genotype 1a strains. From the determination of the entire genome sequence, a genotype 1a was assigned to the HCV isolate according to the classification of Simmonds et al. (See P Simmonds, K A Rose, S Graham, S W Chan, F McOmish, B C Dow, E A Follett, P L Yap and H Marsden, J. Clin. Microbiol., 31(6), 1493-1503 (1993)). […] The infectious clones, H77 (1a genotype) and J4L6S (1b genotype) were obtained from R. Purcell (NIH) and the sequences are published in Genbank (AAB67036, see Yanagi, M., Purcell, R. H., Emerson, S. U. and Bukh, J. Proc. Natl. Acad. Sci. U.S.A. 94(16), 8738-8743 (1997); AF054247, see Yanagi, M., St Claire, M., Shapiro, M., Emerson, S. U., Purcell, R. H. and Bukh, J. Virology 244 (1), 161-172. (1998)).\nNS3/4A protease complex-containing fractions were pooled and loaded on a desalting column Superdex-S200 pre-equilibrated with buffer D (25 mM HEPES, pH 7.5, 20% glycerol, 300 mM NaCl, 0.2% Triton X-100, 10 mM βME). Sample was loaded at a flow rate of 1 mL/min. NS3/4A protease complex-containing fractions were pooled and concentrated to approximately 0.5 mg/ml. The purity of the NS3/4A protease complexes, derived from the BMS, H77 and J4L6S strains, were judged to be greater than 90% by SDS-PAGE and mass spectrometry analyses. The enzyme was stored at −80° C., thawed on ice and diluted prior to use in assay buffer.\nThe purpose of this in vitro assay was to measure the inhibition of HCV NS3 protease complexes, derived from the BMS strain, H77 strain or J4L6S strain, as described above, by compounds of the present disclosure. This assay provides an indication of how effective compounds of the present disclosure would be in inhibiting HCV NS3 proteolytic activity.\nIn order to monitor HCV NS3/4A protease activity, an NS3/4A peptide substrate was used. The substrate was RET S1 (Resonance Energy Transfer Depsipeptide Substrate; AnaSpec, Inc. cat #22991) (FRET peptide), described by Taliani et al. in Anal. Biochem. 240(2):60-67 (1996). The sequence of this peptide is loosely based on the NS4A/NS4B natural cleavage site for the HCV NS3 protease except there is an ester linkage rather than an amide bond at the cleavage site. The peptide also contains a fluorescence donor, EDANS, near one end of the peptide and an acceptor, DABCYL, near the other end. The fluorescence of the peptide is quenched by […] resonance energy transfer (RET) between the donor and the acceptor, but as the NS3 protease cleaves the peptide the products are released from RET quenching and the fluorescence of the donor becomes apparent.\nThe peptide substrate was incubated with one of the three recombinant NS3/4A protease complexes, in the absence or presence of a compound of the present disclosure. The inhibitory effects of a compound were determined by monitoring the formation of fluorescent reaction product in real time using a Cytofluor Series 4000.\nAssay buffer: 50 mM HEPES, pH 7.5; 0.15 M NaCl; 0.1% Triton; 15% Glycerol; 10 mM βME. Substrate: 2 μM final concentration (from a 2 mM stock solution in DMSO stored at −20° C.). HCV NS3/4A protease type 1a (1b), 2-3 nM final concentration (from a 5 μM stock solution in 25 mM HEPES, pH 7.5, 20% glycerol, 300 mM NaCl, 0.2% Triton-X100, 10 mM βME). […]"}, "[2]": {"tested_on": "HCV replicon (strain 1b) in HUH-7 cells", "assay": "HCV replicon FRET assay", "format": "cell-based, Hepatitis C virus", "settings": "activity range class", "excerpt": "An HCV replicon whole cell system was established as described by Lohmann V, Korner F, Koch J, Herian U, Theilmann L, Bartenschlager R., Science 285(5424): 110-3 (1999). This system enabled us to evaluate the effects of our HCV Protease compounds on HCV RNA replication. Briefly, using the HCV strain 1b sequence described in the Lohmann paper (Assession number: AJ238799), an HCV cDNA was synthesized by Operon Technologies, Inc. (Alameda, Calif.), and the full-length replicon was then assembled in plasmid pGem9zf(+) (Promega, Madison, Wis.) using standard molecular biology techniques. The replicon consists of (i) the HCV 5′ UTR fused to the first 12 amino acids of the capsid protein, (ii) the neomycin phosphotransferase gene (neo), (iii) the IRES from encephalomyocarditis virus (EMCV), and (iv) HCV NS3 to NS5B genes and the HCV 3′ UTR. Plasmid DNAs were linearized with ScaI and RNA transcripts were synthesized in vitro using the T7 MegaScript transcription kit (Ambion, Austin, Tex.) according to manufacturer's directions. In vitro transcripts of the cDNA were transfected into the human hepatoma cell line, HUH-7. […] Resulting cell lines were characterized for positive and negative strand RNA production and protein production over time.\nThe HCV replicon FRET assay was developed to monitor the inhibitory effects of compounds described in the disclosure on HCV viral replication. HUH-7 cells, constitutively expressing the HCV replicon, were grown in Dulbecco's Modified Eagle Media (DMEM) (Gibco-BRL) containing 10% Fetal calf serum (FCS) (Sigma) and 1 mg/ml G418 (Gibco-BRL). Cells were seeded the night before (1.5×10^4 cells/well) in 96-well tissue-culture sterile plates. Compound and no compound controls were prepared in DMEM containing 4% FCS, 1:100 Penicillin/Streptomysin (Gibco-BRL), 1:100 L-glutamine and 5% DMSO in the dilution plate (0.5% DMSO final concentration in the assay). Compound/DMSO mixes were added to the cells and incubated for 4 days at 37° C. After 4 days, cells were first assessed for cytotoxicity using alamar Blue (Trek Diagnotstic Systems) for a CC50 reading. The toxicity of compound (CC50) was determined by adding 1/10th volume of alamarBlue to the media incubating the cells. After 4 hours, the fluorescence signal from each well was read, with an excitation wavelength at 530 nm and an emission wavelength of 580 nm, using the Cytofluor Series 4000 (Perspective Biosystems). Plates were then rinsed thoroughly with Phosphate-Buffered Saline (PBS) (3 times 150 μl)."}, "[3]": {"settings": "read-out: HCV Protease (IC50); NS3/4A BMS strain; activity range class"}, "[4]": {"settings": "Hepatitis C virus, Huh-7, read-out: HCV Pro Replicon (EC50), HCV replicon cell assay"}}, "note": "Where two headings read alike, the source gives them in different places."}
{"smiles": "C=C[C@@H]1C[C@]1(NC(=O)[C@@H]1C[C@@H](Oc2nccc3cc(OC)ccc23)CN1C(=O)C(Nc1nc(OC)cc(OC)n1)C(C)C)C(=O)NS(=O)(=O)C1CC1", "note": "(mixture of isomers) [Compound 5, N-(4,6-dimethoxy-2-pyrimidinyl)valyl-(4R)—N-((1R,2S)-1-((cyclopropylsulfonyl)carbamoyl)-2-vinylcyclopropyl)-4-((6-methoxy-1-isoquinolinyl)oxy)-L-prolinamide]", "values": [{"measurement": "IC50", "setting": "[1]; [3]", "result": "20 to 200", "unit": "nM"}, {"measurement": "EC50", "setting": "[2]; [4]", "result": "100 to 1000", "unit": "nM"}]}
{"smiles": "C=C[C@@H]1C[C@]1(NC(=O)[C@@H]1C[C@@H](Oc2nccc3cc(OC)ccc23)CN1C(=O)C(Nc1cc(C#N)ccn1)C(C)C)C(=O)NS(=O)(=O)C1CC1", "note": "(mixture of isomers) [Compound 11, N-(4-cyano-2-pyridinyl)valyl-(4R)—N-((1R,2S)-1-((cyclopropylsulfonyl)carbamoyl)-2-vinylcyclopropyl)-4-((6-methoxy-1-isoquinolinyl)oxy)-L-prolinamide]", "values": [{"measurement": "IC50", "setting": "[1]; [3]", "result": "0.6 to 20", "unit": "nM"}, {"measurement": "EC50", "setting": "[2]; [4]", "result": "3 to 100", "unit": "nM"}]}
{"smiles": "C=C[C@@H]1C[C@]1(NC(=O)[C@@H]1C[C@@H](Oc2nc(N(C)C)cc3cc(OC)ccc23)CN1C(=O)C(Nc1ccccc1)C(C)(C)C)C(=O)NS(=O)(=O)C1CC1", "note": "(single isomer, unassigned) [19 first isomer]", "values": [{"measurement": "IC50", "setting": "[1]; [3]", "result": "0.6 to 20", "unit": "nM"}, {"measurement": "EC50", "setting": "[2]; [4]", "result": "3 to 100", "unit": "nM"}]}
{"smiles": "C=C[C@@H]1C[C@]1(NC(=O)[C@@H]1C[C@@H](Oc2nc(OC)cc3cc(OC)ccc23)CN1C(=O)C(Nc1ccccc1)C(C)(C)C)C(=O)NS(=O)(=O)C1CC1", "note": "(single isomer, unassigned) [20 first isomer]", "values": [{"measurement": "IC50", "setting": "[1]; [3]", "result": "0.6 to 20", "unit": "nM"}, {"measurement": "EC50", "setting": "[2]; read-out: HCV Pro Replicon (EC50), HCV replicon cell assay", "result": "3 to 100", "unit": "nM"}]}
{"smiles": "C=C[C@@H]1C[C@]1(NC(=O)[C@@H]1C[C@@H](Oc2ncc(OC)c3ccc(Cl)cc23)CN1C(=O)C(Nc1ccc(OC(F)F)nc1)C(C)(C)C)C(=O)NS(=O)(=O)C1CC1", "note": "(single isomer, unassigned) [409 - first isomer]", "values": [{"measurement": "IC50", "setting": "[1]; [3]", "result": "20 to 200", "unit": "nM"}]}
{"smiles": "C=C[C@@H]1C[C@]1(NC(=O)[C@@H]1C[C@@H](Oc2ncc(OC)c3ccc(Cl)cc23)CN1C(=O)C(Nc1ccc(OC(F)F)nc1)C(C)(C)C)C(=O)NS(=O)(=O)C1CC1", "note": "(single isomer, unassigned) [409 - second isomer]", "values": [{"measurement": "IC50", "setting": "[1]; [3]", "result": "> 200", "unit": "nM"}]}
{"smiles": "C=C[C@@H]1C[C@]1(NC(=O)[C@@H]1C[C@@H](Oc2ncc(OC)c3ccc(Cl)cc23)CN1C(=O)[C@H](Nc1cccc(C(=O)NC(C)(C)c2ccccc2)c1)C(C)(C)C)C(=O)NS(=O)(=O)C1CC1", "note": "(single isomer, unassigned; isomer 3) [216 second isomer]", "values": [{"measurement": "IC50", "setting": "[1]; NS3/4A BMS strain; activity range class; read-out: HCV Protease (IC50)", "result": "> 200", "unit": "nM"}]}
{"smiles": "C=C[C@@H]1C[C@]1(NC(=O)[C@@H]1C[C@@H](Oc2ncc(OC)c3ccc(Cl)cc23)CN1C(=O)[C@H](Nc1cccc(F)c1F)C(C)(C)C)C(=O)NS(=O)(=O)C1CC1", "note": "[208 second isomer, N-(2,3-difluorophenyl)-3-methyl-D-valyl-(4R)-4-((7-chloro-4-methoxy-1-isoquinolinyl)oxy)-N-((1R,2S)-1-((cyclopropylsulfonyl)carbamoyl)-2-vinylcyclopropyl)-L-prolinamide]", "values": [{"measurement": "IC50", "setting": "[1]; [3]", "result": "> 200", "unit": "nM"}]}
{"smiles": "C=C[C@@H]1C[C@]1(NC(=O)[C@@H]1C[C@@H](Oc2ncc(OC)c3ccc(Cl)cc23)CN1C(=O)[C@H](Nc1ccc(S(=O)(=O)NC(C)(C)C)cc1)C(C)(C)C)C(=O)NS(=O)(=O)C1CC1", "note": "[214 second isomer, N-(4-(tert-butylsulfamoyl)phenyl)-3-methyl-D-valyl-(4R)-4-((7-chloro-4-methoxy-1-isoquinolinyl)oxy)-N-((1R,2S)-1-((cyclopropylsulfonyl)carbamoyl)-2-vinylcyclopropyl)-L-prolinamide]", "values": [{"measurement": "IC50", "setting": "[1]; [3]", "result": "> 200", "unit": "nM"}]}
{"smiles": "C=C[C@@H]1C[C@]1(NC(=O)[C@@H]1C[C@@H](Oc2ncc(OC)c3ccc(Cl)cc23)CN1C(=O)[C@H](Nc1cccc(C(N)=O)c1)C(C)(C)C)C(=O)NS(=O)(=O)C1CC1", "note": "[217 second isomer, N-(3-carbamoylphenyl)-3-methyl-D-valyl-(4R)-4-((7-chloro-4-methoxy-1-isoquinolinyl)oxy)-N-((1R,2S)-1-((cyclopropylsulfonyl)carbamoyl)-2-vinylcyclopropyl)-L-prolinamide]", "values": [{"measurement": "IC50", "setting": "[1]; [3]", "result": "> 200", "unit": "nM"}]}
{"smiles": "C=C[C@@H]1C[C@]1(NC(=O)[C@@H]1C[C@@H](Oc2ncc(OC)c3ccc(Cl)cc23)CN1C(=O)[C@H](Nc1ccc(C(N)=O)cc1)C(C)(C)C)C(=O)NS(=O)(=O)C1CC1", "note": "[226 second isomer, N-(4-carbamoylphenyl)-3-methyl-D-valyl-(4R)-4-((7-chloro-4-methoxy-1-isoquinolinyl)oxy)-N-((1R,2S)-1-((cyclopropylsulfonyl)carbamoyl)-2-vinylcyclopropyl)-L-prolinamide]", "values": [{"measurement": "IC50", "setting": "[1]; [3]", "result": "> 200", "unit": "nM"}]}
{"smiles": "C=C[C@@H]1C[C@]1(NC(=O)[C@@H]1C[C@@H](Oc2nc3c(c4cc(OC)ccc24)OCCN3C)CN1C(=O)[C@@H](Nc1ccc(F)c(F)c1)C(C)(C)C)C(=O)NS(=O)(=O)C1CC1", "note": "[235 first isomer, N-(3,4-difluorophenyl)-3-methyl-L-valyl-(4R)—N-((1R,2S)-1-((cyclopropylsulfonyl)carbamoyl)-2-vinylcyclopropyl)-4-((9-methoxy-4-methyl-3,4-dihydro-2H-[1,4]oxazino[3,2-c]isoquinolin-6-yl)oxy)-L-prolinamide]", "values": [{"measurement": "IC50", "setting": "[1]; [3]", "result": "> 200", "unit": "nM"}]}
